Km data for 1 compound are collected here from paper PMC3688963, “Biochemical Characterization of Hypothetical Proteins from Helicobacter pylori” (PLoS ONE, 2013).

The test deals with T1, HP1079 (Helicobacter pylori, UniProt O25711).
T1 construct: gene HP_1079; native protein captured with GTP-coated nano-particles; His6 recombinant also made
T1 sequence (O25711 1-370): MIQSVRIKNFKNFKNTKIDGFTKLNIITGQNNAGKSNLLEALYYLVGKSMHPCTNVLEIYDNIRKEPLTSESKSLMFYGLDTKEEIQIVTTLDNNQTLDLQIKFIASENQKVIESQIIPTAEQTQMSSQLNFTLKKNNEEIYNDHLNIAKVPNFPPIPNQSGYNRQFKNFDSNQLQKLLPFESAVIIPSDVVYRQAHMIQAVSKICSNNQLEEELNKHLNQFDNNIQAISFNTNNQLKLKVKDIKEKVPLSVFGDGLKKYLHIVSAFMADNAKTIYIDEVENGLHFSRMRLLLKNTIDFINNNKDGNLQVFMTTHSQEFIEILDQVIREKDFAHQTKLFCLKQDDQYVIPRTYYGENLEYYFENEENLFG
Nature of the test: phosphate release, malachite green. The class given is biochemical. The note with it: 10 mM MgCl2, 10% glycerol, 100 mM sodium acetate pH 6.0, 30°C; read-out: Km (mM)^bc. The text has this: phosphate release, malachite green on HP1079

The term Km denotes the concentration of substrate that gives half-maximal velocity.

`Nc1ncnc2c1ncn2[C@@H]1O[C@H](COP(=O)(O)OP(=O)(O)OP(=O)(O)O)[C@@H](O)[C@H]1O` [ATP]: the Km turned out to be 1.02 ± 0.05 mM.
